Laboratory results reported in US20150306096A1, “8'-HYDROXY-DIHYDROERGOTAMINE COMPOUNDS AND COMPOSITIONS” (MAP Pharmaceuticals, Inc., priority 2012, published 2015).
Like-named read-outs stand apart in the source and are kept apart here.

How the values were obtained:
human 5-HT2B receptor = target: T1, human 5-HT2B receptor (Homo sapiens, UniProt P41595); experiment: Radioligand competition binding and kinetics, CHO-K1 membranes
T1 construct: purchased Euroscreen; host or cells: CHO-K1
Protocol: For kinetics of radioligand competitive binding, serial dilutions were performed from master solution in 100% DMSO to obtain intermediate concentrations 200-fold higher than the concentrations to be tested. Each test sample was diluted 100-fold in the assay buffer and dispensed into the test plate.
Ligand: 5-HT (Sigma, H-9523)
Determination of the Kon constant. Radioligand association kinetics on each receptor were performed by adding in the wells of a 96 well plate 50 μL of radioligand and 50 μL of membrane extracts. The samples were incubated for the times reported in Table 3 below at a temperature optimized for each receptor and filtered over a filter plate. After washing the filters 5 times with 0.5 mL of ice-cold washing buffer, 50 μL of Microscint 20 (Packard) were added to the filters and the plates were incubated 15 min on an orbital shaker and then counted for 1 min/well. This allowed determination of the kobs for each radioligand. Association kinetics were performed at 5 different radioligand concentrations optimized for each receptor (see Table 3 below) to determine 5 different kobs. The different kobs were then plotted against the [radioligand] and the K. was calculated using the following equation: kon=(kobs−koff)[radioligand].
Determination of the Koff constant. Radioligand dissociation kinetics on each receptor were performed by adding in the wells of a 96 well plate 45 μL of radioligand and 45 μL of membrane extracts. The samples were incubated as reported in Table 4 below at a temperature optimized for each receptor until binding equilibrium was reached as determined by the association kinetics experiment. Then, 100 μL of cold competitor (reference ligand) were added at a 200 fold excess (final concentration) for the times reported in Table 4 at the optimized temperature. The samples were then filtered over a filter plate. After washing the filters 5 times with 0.5 mL of ice-cold washing buffer, 50 μL of Microscint 20 (Packard) were added to the filters and the plates were incubated 15 min on an orbital shaker and then counted for 1 min/well. This allowed determination of the koff for each radioligand.
Determination of IC50 and Ki constant for each test compound. […] After washing the filters 5 times with 0.5 mL of ice-cold washing buffer, 50 μL of Microscint 20 (Packard) were added to the filters and the plates were incubated 15 min on an orbital shaker and then counted for 1 min/well. […]
Determination of kon and koff constants for each test compound. Each compound was first assessed in a pilot experiment to evaluate its effect on the kinetic binding of each receptor-radioligand pair. […]

[1] = target: T2, human Serotonin 5-HT1F receptor (Homo sapiens, UniProt P30939); experiment: cAMP HTRF functional assay (agonist/antagonist); format: cell-based
T2 construct: expressed in transfected cells; host or cells: CHO-K1
Protocol: Functional profiling of agonist and antagonist activities of 8′-OH DHE on human Adrenergic α1D, Dopamine D2L, and Serotonin 5-HT1B, 5-HT1D, 5-HT1F, 5-HT3, 5-HT4e and 5-HT5A receptors (compared against the parent (DHE) molecule) was carried out as follows.
The SPA 35S-GTPγS tests were conducted with Euroscreen membrane preparations […]. The HTRF assays were conducted with recombinant cell lines. The receptor accession numbers, cellular background and reference compounds are as reported below in Table 10.
(4) DHE and 8′-OH DHE were tested for agonist and antagonist activity at the human Serotonin 5-HT1F and Serotonin 5-HT4E receptors using cAMP HTRF assay (in triplicate) at the following nanomolar concentrations: […]
Agonist activity of the test compounds was expressed as a percentage of the activity of the reference agonist at its EC100 concentration. Antagonist activity of the test compounds was expressed as a percentage of the inhibition of the reference agonist activity at its EC80 concentration. Dose-response data from the test compounds were analyzed with XLfit (IDBS) software using nonlinear regression applied to a sigmoidal dose-response model and the following equation: […]

T1 sequence (P41595 whole entry): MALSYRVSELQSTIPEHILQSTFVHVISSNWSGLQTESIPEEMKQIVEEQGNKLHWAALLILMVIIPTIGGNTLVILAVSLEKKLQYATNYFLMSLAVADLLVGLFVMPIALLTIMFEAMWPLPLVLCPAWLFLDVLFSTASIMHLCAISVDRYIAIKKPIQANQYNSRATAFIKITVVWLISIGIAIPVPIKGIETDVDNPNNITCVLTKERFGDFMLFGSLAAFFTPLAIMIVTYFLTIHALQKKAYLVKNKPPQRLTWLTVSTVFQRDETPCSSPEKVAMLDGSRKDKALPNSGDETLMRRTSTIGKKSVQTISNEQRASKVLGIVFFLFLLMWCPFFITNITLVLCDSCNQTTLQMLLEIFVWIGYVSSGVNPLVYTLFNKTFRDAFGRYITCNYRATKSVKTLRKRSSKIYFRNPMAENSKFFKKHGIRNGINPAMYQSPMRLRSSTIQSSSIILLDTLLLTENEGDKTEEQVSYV
T2 sequence (P30939 whole entry): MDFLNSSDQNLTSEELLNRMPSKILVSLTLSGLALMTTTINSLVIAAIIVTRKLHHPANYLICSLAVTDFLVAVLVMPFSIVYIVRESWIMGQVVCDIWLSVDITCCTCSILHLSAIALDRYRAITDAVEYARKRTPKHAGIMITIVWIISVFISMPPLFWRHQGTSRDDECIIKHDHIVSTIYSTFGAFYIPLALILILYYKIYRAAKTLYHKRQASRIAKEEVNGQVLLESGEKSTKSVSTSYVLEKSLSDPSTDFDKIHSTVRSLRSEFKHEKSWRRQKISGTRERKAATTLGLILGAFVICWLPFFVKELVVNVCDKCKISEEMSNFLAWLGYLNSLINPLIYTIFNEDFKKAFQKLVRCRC

Structure (SMILES) | IC50 (human 5-HT2B receptor; 5-HT2B, [3H]-Mesulergine, read-out: IC50 from binding assay) [nM] | Agonist and antagonist activity [1] | IC50 (human 5-HT2B receptor) [nM]
CN1C[C@H](C(=O)N[C@]2(C)O[C@@]3(O)[C@@H]4CCC(O)N4C(=O)[C@H](Cc4ccccc4)N3C2=O)C[C@@H]2c3cccc4[nH]cc(c34)C[C@H]21 (stereo partly shown) [8′-OH DHE, 8′-Hydroxy-Dihydroergotamine] | 7.73 | inactive | 
CN1C[C@H](C(=O)N[C@]2(C)O[C@@]3(O)[C@@H]4CCCN4C(=O)[C@H](Cc4ccccc4)N3C2=O)C[C@@H]2c3cccc4[nH]cc(c34)C[C@H]21 [DHE, Dihydroergotamine] |  | inactive | 12.9
